# Laboratory results published in patent publication US10316017B2, “COT modulators and methods of use thereof” (Gilead Sciences, Inc., priority 2015, dated 2019).
# Like-named read-outs stand apart in the source and are kept apart here.
# Legend:
# [1] = tested on: TNFα production in LPS-stimulated human monocytes; assay: Cot Monocyte TNFα Cell Based Assay; details: Homo sapiens, Monocyte, read-out: EC50 TNF
# Procedure, shortened: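 TNFα release quantified by two-antibody TR-FRET, normalised to unstimulated (0%) and LPS-stimulated (100%) wells. Cells got a 1 h compound exposure at 37° C in 0.5% DMSO before 4 h challenge with 50 pg/ml LPS, at 5,000 cells/well.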
# [2] = molecular target: T1, human Cot catalytic domain (30-397 amino acids) (Homo sapiens, UniProt P41279); assay: High Throughput Cot Biochemical Assay (KinEASE TR-FRET); details: read-out: IC50 HTRF
# T1 construct: Purified recombinant human Cot catalytic domain (30-397 amino acids) was purchased from Cama Biosciences; purchased Cama Biosciences (so in the source)
# T1 sequence (P41279 30-397): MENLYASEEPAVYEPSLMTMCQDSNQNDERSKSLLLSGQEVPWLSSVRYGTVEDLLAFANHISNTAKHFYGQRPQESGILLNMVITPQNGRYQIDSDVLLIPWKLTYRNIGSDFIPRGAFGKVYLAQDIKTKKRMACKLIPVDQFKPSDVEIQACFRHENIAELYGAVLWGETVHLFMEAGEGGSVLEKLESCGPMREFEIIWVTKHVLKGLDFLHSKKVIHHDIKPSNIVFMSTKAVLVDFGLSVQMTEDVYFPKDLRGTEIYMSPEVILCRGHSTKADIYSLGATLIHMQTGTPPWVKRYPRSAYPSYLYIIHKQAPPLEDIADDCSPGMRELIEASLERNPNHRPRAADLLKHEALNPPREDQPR
# Procedure, shortened: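 TR-FRET (KinEASE) read-out: Eu-labelled phospho-specific antibody binds XL665-tagged STK3 peptide (1 μM) phosphorylated by 5 nM human Cot kinase domain (residues 30-397). Reaction at 400 μM ATP, pH 7.0 MOPS buffer with 10 mM MgOAc, 1 mM DTT and 0.1% DMSO.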
# [3] = TNFα in LPS-stimulated human monocytes
# [4] = Cot KinEASE TR-FRET (HTRF) biochemical assay, 400 μM ATP
# [5] = Cot biochemical HTRF (KinEASE TR-FRET) assay
# [6] = LPS-stimulated human monocytes, TNFα TR-FRET
# [7] = Cot KinEASE TR-FRET, 400 μM ATP
"EC50 [1, 3] [nM]","IC50 [2, 4] [nM]","IC50 [2, 5] [nM]",SMILES,also measured
1600,82,,"N#Cc1cnc2c(Cl)cc(N[C@@H](c3ccc(F)cc3)c3cn(C4CC4)nn3)cc2c1NC(CF)c1ccccc1 (stereo partly drawn) [Example 323, 8-chloro-6-(((S)-(1-cyclopropyl-1H-1,2,3-triazol-4-yl)(4-fluorophenyl)methyl)amino)-4-((2-fluoro-1-phenylethyl)amino)quinoline-3-carbonitrile]",
111,,2,"CN(C)C(=O)c1cccc([C@H](Nc2cc(Cl)c3ncc(C#N)c(Nc4ccc(Cl)c(Cl)c4F)c3c2)c2cn(C3CCN(C(C)(C)C)CC3)nn2)c1 [Example 572, (S)-3-((1-(1-(tert-butyl)piperidin-4-yl)-1H-1,2,3-triazol-4-yl)((8-chloro-3-cyano-4-((3,4-dichloro-2-fluorophenyl)amino)quinolin-6-yl)amino)methyl)-N,N-dimethylbenzamide]",
> 10000,864,,"CC(C)n1cc([C@@H](Nc2cc(Cl)c3ncc(C#N)c(N[C@@H](CC#N)c4ccccc4)c3c2)c2ccc(F)cc2)nn1 [Example 304, 8-chloro-4-(((S)-2-cyano-1-phenylethyl)amino)-6-(((S)-(4-fluorophenyl)(1-isopropyl-1H-1,2,3-triazol-4-yl)methyl)amino)quinoline-3-carbonitrile]",
3930,,624,"N#Cc1cnc2c(Cl)cc(N[C@@H](c3ccc(F)cc3)c3c[nH]nn3)cc2c1N[C@@H](CCO)c1ccccc1 [Example 432, 8-chloro-6-(((S)-(4-fluorophenyl)(1H-1,2,3-triazol-4-yl)methyl)amino)-4-(((S)-3-hydroxy-1-phenylpropyl)amino)quinoline-3-carbonitrile]",
423,21,,"[2H][C@](Nc1cc(Cl)c2ncc(C#N)c(Nc3cnc(F)c(F)c3)c2c1)(c1ccc(F)cc1)c1cn([C@@H](C)CF)nn1 [Example 360, 8-chloro-4-((5,6-difluoropyridin-3-yl)amino)-6-(((S)-(4-fluorophenyl)(1-((S)-1-fluoropropan-2-yl)-1H-1,2,3-triazol-4-yl)methyl-d)amino)quinoline-3-carbonitrile]",
7860,,366,"Cn1ccnc1C(Nc1cc(Cl)c2ncc(C#N)c(Nc3ccc(F)c(Cl)c3)c2c1)c1ccc(F)cc1 (centres unmarked) [Example 847, 8-chloro-4-((3-chloro-4-fluorophenyl)amino)-6-(((4-fluorophenyl)(1-methyl-1H-imidazol-2-yl)methyl)amino)quinoline-3-carbonitrile]",
795,,48,"CC(C)(C)N1CCC(n2cc([C@@H](Nc3cc(Cl)c4ncc(C#N)c(Nc5ccc(O)c(Cl)c5)c4c3)c3ccc(Cl)cc3)nn2)CC1 [Example 701, (S)-6-(((1-(1-(tert-butyl)piperidin-4-yl)-1H-1,2,3-triazol-4-yl)(4-chlorophenyl)methyl)amino)-8-chloro-4-((3-chloro-4-hydroxyphenyl)amino) quinoline-3-carbonitrile]",

# The remaining lines, values behind:
SMILES,"EC50 [1, 3] [nM]","IC50 [2, 4] [nM]","IC50 [2, 5] [nM]",also measured
"[2H][C@](Nc1cc(Cl)c2ncc(C#N)c(Nc3cnc(F)c(F)c3)c2c1)(c1cccc(C#N)c1)c1c[nH]nn1 [Example 370, (S)-8-chloro-6-(((3-cyanophenyl)(1H-1,2,3-triazol-4-yl)methyl-d)amino)-4-((5,6-difluoropyridin-3-yl)amino)quinoline-3-carbonitrile]",417,5,,
"[2H][C@](Nc1cc(Cl)c2ncc(C#N)c(Nc3cnc(F)c(Cl)c3)c2c1)(c1cccc(C#N)c1)c1cn(C2CC2)nn1 [Example 303, (S)-8-chloro-4-((5-chloro-6-fluoropyridin-3-yl)amino)-6-(((3-cyanophenyl)(1-cyclopropyl-1H-1,2,3-triazol-4-yl)methyl-d)amino)quinoline-3-carbonitrile]",174,4,,
"[2H][C@](Nc1cc(Cl)c2ncc(C#N)c(NC34CC(C3)C4)c2c1)(c1ccc(F)cc1)c1cn(C2CC2)nn1 [Example 153, (S)-4-(bicyclo[1.1.1]pentan-1-ylamino)-8-chloro-6-(((1-cyclopropyl-1H-1,2,3-triazol-4-yl)(4-fluorophenyl)methyl-d)amino)quinoline-3-carbonitrile]",892,196,,
"CC(C)C(C)(C)CNc1c(C#N)cnc2c(Cl)cc(N[C@@H](c3ccc(F)cc3)c3c[nH]nn3)cc12 [Example 399, (S)-8-chloro-6-(((4-fluorophenyl)(1H-1,2,3-triazol-4-yl)methyl)amino)-4-((2,2,3-trimethylbutyl)amino) quinoline-3-carbonitrile]",891,38,,
"Cc1c(-c2cncn2C)cccc1[C@H](Nc1cc(Cl)c2ncc(C#N)c(NCC(C)(C)C)c2c1)c1cn(C2(C(F)(F)F)CC2)nn1 [Example 1120, (S)-8-chloro-6-(((2-methyl-3-(1-methyl-1H-imidazol-5-yl)phenyl)(1-(1-(trifluoromethyl)cyclopropyl)-1H-1,2,3-triazol-4-yl)methyl)amino)-4-(neopentylamino)quinoline-3-carbonitrile]",,,,"EC50 [1, 6]: 88 nM; IC50 [2, 7]: 6 nM"
"[2H][C@](Nc1cc(Br)c2ncc(C#N)c(NCC(C)(C)C)c2c1)(c1ccc(F)cc1)c1cn(C2CC2)nn1 [Example 287, (S)-8-bromo-6-(((1-cyclopropyl-1H-1,2,3-triazol-4-yl)(4-fluorophenyl)methyl-d)amino)-4-(neopentylamino)quinoline-3-carbonitrile]",140,10,,
"N#Cc1cnc2c(Cl)cc(N[C@@H](c3ccc(Cl)cc3)c3c[nH]nn3)cc2c1Nc1ccc(OCc2ccccc2)c(Cl)c1 [Example 648, (S)-4-((4-(benzyloxy)-3-chlorophenyl)amino)-8-chloro-6-(((4-chlorophenyl)(1H-1,2,3-triazol-4-yl)methyl)amino)quinoline-3-carbonitrile]",4430,,> 10000,
"[2H][C@](Nc1cc(Cl)c2ncc(C#N)c(N[C@@H]3CCC[C@@H](O)C3)c2c1)(c1ccc(F)cc1)c1cn(C2CC2)nn1 [Example 316, 8-chloro-6-(((S)-(1-cyclopropyl-1H-1,2,3-triazol-4-yl)(4-fluorophenyl)methyl-d)amino)-4-(((1R,3R)-3-hydroxycyclohexyl)amino) quinoline-3-carbonitrile]",3640,1820,,
"CC(C)(O)c1cccc([C@H](Nc2cc(Cl)c3ncc(C#N)c(Nc4ccc(F)c(Cl)c4)c3c2)c2cn(C3CCN(C(C)(C)C)CC3)nn2)c1 [Example 727, (S)-6-(((1-(1-(tert-butyl)piperidin-4-yl)-1H-1,2,3-triazol-4-yl)(3-(2-hydroxypropan-2-yl)phenyl)methyl)amino)-8-chloro-4-((3-chloro-4-fluorophenyl)amino)quinoline-3-carbonitrile]",178,,3,
"[2H][C@](Nc1cc(Cl)c2ncc(C#N)c(NC[Si](C)(C)C)c2c1)(c1ccc(F)cc1)c1cn(C2CC2)nn1 [Example 262, (S)-8-chloro-6-(((1-cyclopropyl-1H-1,2,3-triazol-4-yl)(4-fluorophenyl)methyl-d)amino)-4-(((trimethylsilyl)methyl)amino) quinoline-3-carbonitrile]",,10,,EC50 [1]: 259 nM
"CC(C)(C)CNc1c(C#N)cnc2c(C#N)cc(N[C@H](c3cn(C4(CF)CC4)nn3)c3ccccc3Cl)cc12 [Example 1036, (S)-6-(((2-chlorophenyl)(1-(1-(fluoromethyl)cyclopropyl)-1H-1,2,3-triazol-4-yl)methyl)amino)-4-(neopentylamino)quinoline-3,8-dicarbonitrile]",,,,"EC50 [1, 6]: 195 nM; IC50 [2, 7]: 9 nM"
"N#Cc1cnc2c(Cl)cc(N[C@@H](c3cccc(C(F)(F)F)c3)c3cn(C4CC4)nn3)cc2c1Nc1cnc(F)c(F)c1 [Example 264, (S)-8-chloro-6-(((1-cyclopropyl-1H-1,2,3-triazol-4-yl)(3-(trifluoromethyl)phenyl)methyl)amino)-4-((5,6-difluoropyridin-3-yl)amino)quinoline-3-carbonitrile]",567,45,,
"Cn1cc(Nc2c(C#N)cnc3c(Cl)cc(N[C@@H](c4ccccc4)c4cn(C5CCN(C(C)(C)C)CC5)nn4)cc23)cn1 [Example 478, (S)-6-(((1-(1-(tert-butyl)piperidin-4-yl)-1H-1,2,3-triazol-4-yl)(phenyl)methyl)amino)-8-chloro-4-((1-methyl-1H-pyrazol-4-yl)amino)quinoline-3-carbonitrile]",5530,,1050,
"CC[C@@H](Nc1c(C#N)cnc2c(C#N)cc(N[C@@H](c3cccc(C(N)=O)c3)c3cn(C4CC4)nn3)cc12)c1ccccc1 [Example 942, 3-((S)-(1-cyclopropyl-1H-1,2,3-triazol-4-yl) ((3,8-dicyano-4-(((R)-1-phenylpropyl)amino)quinolin-6-yl)amino)methyl)benzamide]",,,,"EC50 [1, 6]: 141 nM; IC50 [2, 7]: 1 nM"
"[2H]C(Nc1cc(Cl)c2ncc(C#N)c(NC3CC4CCCC(C4)C3)c2c1)(c1ccc(F)cc1)c1cn(C2CC2)nn1 (stereo in doubt) [Example 278, 4-(((1R,5S)-bicyclo[3.3.1]nonan-3-yl)amino)-8-chloro-6-(((S)-(1-cyclopropyl-1H-1,2,3-triazol-4-yl)(4-fluorophenyl)methyl-d)amino)quinoline-3-carbonitrile]",> 10000,222,,
